Each molecule was assayed against DP IV (Homo sapiens, UniProt P27487) (assay: DP IV inhibition IC50, parallel-synthesis compounds tested directly following synthesis (without purification)). Settings: DP IV inhibition; compounds of formula (Ib) from parallel synthesis, tested directly following synthesis (without purification); read-out: IC50.
Type: biochemical
Set-up: IC50 DP4; other: tested directly following parallel synthesis, without purification; compounds of formula (Ib) from parallel synthesis, tested directly following synthesis
Procedure: Compounds were immediately tested regarding their activity as DP IV inhibitors.
Substances are screened for inhibition of dipeptidyl peptidase (DP IV) by their ability to inhibit the hydrolysis of the DP IV specific substrate Glycyl-Prolyl-4-Nitroanilide (Gly-Pro-pNA). All compounds are diluted in DMSO and IC50 will be determined with 11 serial dilutions (1:2) starting with an final concentration of 100 μM. The final DMSO concentration in the assay is 5% (v/v). The method was automated using a Tecan Genesis Freedom liquid handler and a Genius Pro (Tecan) microplate reader.
DP IV from porcine kidney (pDP IV) or recombinant human DP IV (rhDP IV) is diluted in HEPES buffer to a final activity of approximately 40-50 μU*ml^−1. The DP IV is stored in a cooling rack (4° C.) on the liquid handler.
The assay may becarried out at room temperature using Freedom liquid handler connected with a Genios Pro microplate reader. Each sample is measured in duplicate. Each sample stock solution is prediluted with DMSO in a ratio of 1:5 in a polypropylen 96-well plate. From this predilution 10 serial (1:2) dilutions in DMSO are prepared. 13.5 μl of the 11 DMSO dilutions and DMSO alone are transferred to the measurement microplate (duplicates) and 86.5 μl water, 100 μl HEPES buffer and 50 μl substrate solution are added to each well. The enzymatic reaction is started by addition of 20 μl enzyme solution to each well, and then the microplate is immediately transferred to the microplate reader.
After short mixing (20 s) the release of 4-Nitroanilin (pNA) is monitored at 405 nm for 30 cycles (approx. 18 min).
Post assay calculations are done by the Magellan (Tecan) and Graphit Software. The linear slopes are calculated for each well and averaged for the duplicates. The residue activities are calculated in relation to a sample containing only solvent instead of inhibitor and expressed in %. Residue activities are plotted against the log of inhibitor concentrations and IC50 is calculated by an 4-parameter fitting ranging from 0 to 100%.

Compound	IC50 [µM]
NCCCc1c(-c2ccc(Cl)cc2Cl)ncn1CCNc1ccc([N+](=O)[O-])cn1 [74b, {2-[5-(3-Amino-propyl)-4-(2,4-dichloro-phenyl)-imidazol-1-yl]-ethyl}-(5-nitro-pyridin-2-yl)-amine]	12.7
Cc1cnc(Cn2cnc(-c3ccc(Cl)cc3Cl)c2CN)cn1 [27b, C-[5-(2,4-Dichloro-phenyl)-3-(5-methyl-pyrazin-2-ylmethyl)-3H-imidazol-4-yl]-methylamine]	19.9
NCc1c(-c2ccc(Cl)cc2Cl)ncn1CCN1CCCCC1 [58b, C-[5-(2,4-Dichloro-phenyl)-3-(2-piperidin-1-yl-ethyl)-3H-imidazol-4-yl]-methylamine]	42.4
COc1ccc(Cn2cnc(-c3ccc(Cl)cc3Cl)c2C(C)N)cc1 (stereo not drawn) [43b, 1-[5-(2,4-Dichloro-phenyl)-3-(4-methoxy-benzyl)-3H-imidazol-4-yl]-ethylamine]	27.1
NCc1c(-c2ccc(Cl)cc2Cl)ncn1CCCCCCO [16b, 6-[5-Aminomethyl-4-(2,4-dichloro-phenyl)-imidazol-1-yl]-hexan-1-ol]	12.7
CC(C)N(CCn1cnc(-c2ccc(Cl)cc2Cl)c1CN)C(C)C [6b, {2-[5-Aminomethyl-4-(2,4-dichloro-phenyl)-imidazol-1-yl]-ethyl}-diisopropyl-amine]	10.9
NCc1c(-c2ccc(Cl)cc2Cl)ncn1CCNc1ccccc1 [41b, {2-[5-Aminomethyl-4-(2,4-dichloro-phenyl)-imidazol-1-yl]-ethyl}-phenyl-amine]	32.5

More lines, now with the values ahead:

IC50 [µM]	Compound
18.1	NCc1c(-c2ccc(Cl)cc2Cl)ncn1CCC(c1ccccc1)c1ccccc1 [53b, C-[5-(2,4-Dichloro-phenyl)-3-(3,3-diphenyl-propyl)-3H-imidazol-4-yl]-methylamine]
1	NCc1c(-c2ccc(Cl)cc2Cl)ncn1Cc1ccc(F)c(F)c1 [Example 92b, C-[5-(2,4-dichloro-phenyl)-3-(3,4-difluoro-benzyl)-3H-imidazol-4-yl]-methylamine]
25.3	CC(N)c1c(-c2ccc(Cl)cc2Cl)ncn1Cc1cc(F)ccc1F (stereo not drawn) [36b, 1-[5-(2,4-Dichloro-phenyl)-3-(2,5-difluoro-benzyl)-3H-imidazol-4-yl]-ethylamine]
10	NCc1c(-c2ccc(Cl)cc2Cl)ncn1CCNC1CCCCC1 [4b, {2-[5-Aminomethyl-4-(2,4-dichloro-phenyl)-imidazol-1-yl]-ethyl}-cyclohexyl-amine]

Same assay, conditions: tested directly following parallel synthesis, without purification; read-out: IC50 DP4

Compound	IC50 [µM]
NCc1c(-c2ccc(F)cc2F)ncn1Cc1ccccc1Cl [Example 73a, C-[3-(2-Chloro-benzyl)-5-(2,4-difluoro-phenyl)-3H-imid-azol-4-yl]-methyl-amine]	27.1
NCc1c(-c2ccc(Cl)cc2Cl)ncn1Cc1cccc(C(F)(F)F)c1 [Example 38a, C-[5-(2,4-Dichloro-phenyl)-3-(3-tri-fluoromethyl-benzyl)-3H-imid-azol-4-yl]-methyl-amine]	1
NCc1c(-c2ccc(F)cc2F)ncn1Cc1cccnc1 [Example 89a, C-[5-(2,4-Difluoro-phenyl)-3-pyri-din-3-yl-methyl-3H-imid-azol-4-yl]-methyl-amine]	22.6
NCc1c(-c2ccc(F)cc2F)ncn1Cc1cccc(C(F)(F)F)c1 [Example 75a, C-[5-(2,4-Difluoro-phenyl)-3-(3-tri-fluoromethyl-benzyl)-3H-imid-azol-4-yl]-methyl-amine]	28.9

The next lines start with the values.

IC50 [µM]	Compound
25.3	NCc1c(-c2ccc(F)cc2F)ncn1Cc1ccc(F)cc1Cl [Example 87a, C-[3-(2-Chloro-4-fluoro-benzyl)-5-(2,4-difluoro-phenyl)-3H-imid-azol-4-yl]-methyl-amine]
0.1	NCc1c(-c2ccc(Cl)cc2Cl)ncn1Cc1ccc(F)cc1 [Example 36a, C-[5-(2,4-Dichloro-phenyl)-3-(4-fluoro-benzyl)-3H-imid-azol-4-yl]-methyl-amine]
37.9	NCc1c(-c2ccc(F)cc2Cl)ncn1Cc1ccc(Cl)cc1 [Example 22a, C-[3-(4-Chloro-benzyl)-5-(2-chloro-4-fluoro-phenyl)-3H-imid-azol-4-yl]-methyl-amine]
